One may read the inhibition as how much of the control response was suppressed.

The source of these data is patent US20040136975A1 (priority 2004, published 2004).

For one assay, the system named is VEGF. The note with it: cited from earlier work.
Assay [1] has as its system non-transformed (pDCR) NIH 3T3 cells. The assay can be described thus: cells. The class given is cell-based. The note with it: Mus musculus, NIH3T3, 48 h, read-out: inhibition of growth.
A further assay concerns transformed cells. To be noted: cited from earlier work.
Another assay deals with transfected EC cells. To be noted: cited from earlier work.

As for SB203580, the “up-regulation of VEGF by heregulin” value in the assay with VEGF is “blocks”.
In the case of `COc1cccc(-c2cc(=O)c3ccccc3o2)c1N` [PD98059], the inhibition at 50 µM in assay [1] stood at 50%. For the same molecule, the “morphological reversion of transformed cells” value in the assay on transformed cells was “causes morphological reversion”. The “up-regulation of VEGF by heregulin” value with VEGF is on record as “not”.
Turning to trans-retinoic acid, in the assay on transfected EC cells, the “basal motility and motility stimulated by JNK agonists” value was “decreased”.
For the molecule `COc1cc(/C=C/C(=O)CC(=O)/C=C/c2ccc(O)c(OC)c2)ccc1O` [curcumin], in the assay with transfected EC cells, the “basal motility and motility stimulated by JNK agonists” value is “decreased”.
